Results reported in the NIST ThermoML archive (doi:10.1021/je020131a).

Test: xn = mol fraction of the nth substance listed
Details: 101.3 kPa, Liquid, Falling or rolling sphere viscometry

CCOC(=O)OCC [diethyl carbonate] + CCCCCC
Details | viscosity [mPa·s]
293.15 K, x1 = 0.0576 | 0.318
293.15 K, x1 = 0.1106 | 0.326
293.15 K, x1 = 0.2219 | 0.353
293.15 K, x1 = 0.3358 | 0.388
293.15 K, x1 = 0.4303 | 0.422
293.15 K, x1 = 0.5384 | 0.471
293.15 K, x1 = 0.6357 | 0.524
293.15 K, x1 = 0.7334 | 0.588
293.15 K, x1 = 0.8246 | 0.652
293.15 K, x1 = 0.9171 | 0.721
293.15 K, x1 = 0.9589 | 0.757
293.15 K, x1 = 1 | 0.795
298.15 K, x1 = 0.0586 | 0.318
298.15 K, x1 = 0.1024 | 0.323
298.15 K, x1 = 0.2106 | 0.347
298.15 K, x1 = 0.305 | 0.37
298.15 K, x1 = 0.3592 | 0.389
298.15 K, x1 = 0.4259 | 0.412
298.15 K, x1 = 0.5719 | 0.475
298.15 K, x1 = 0.7051 | 0.546
298.15 K, x1 = 0.7965 | 0.605
298.15 K, x1 = 0.8894 | 0.67
298.15 K, x1 = 0.9095 | 0.688
298.15 K, x1 = 0.9794 | 0.737
298.15 K, x1 = 1 | 0.749
303.15 K, x1 = 0.0583 | 0.292
303.15 K, x1 = 0.0941 | 0.299
303.15 K, x1 = 0.1925 | 0.324
303.15 K, x1 = 0.2897 | 0.347
303.15 K, x1 = 0.3927 | 0.378
303.15 K, x1 = 0.5087 | 0.42
303.15 K, x1 = 0.6072 | 0.463
303.15 K, x1 = 0.7059 | 0.512
303.15 K, x1 = 0.8002 | 0.568
303.15 K, x1 = 0.8947 | 0.628
303.15 K, x1 = 0.9532 | 0.672
303.15 K, x1 = 1 | 0.699
313.15 K, x1 = 0.0502 | 0.264
313.15 K, x1 = 0.1001 | 0.278
313.15 K, x1 = 0.2001 | 0.295
313.15 K, x1 = 0.3008 | 0.318
313.15 K, x1 = 0.4021 | 0.344
313.15 K, x1 = 0.4972 | 0.371
313.15 K, x1 = 0.5992 | 0.41
313.15 K, x1 = 0.7005 | 0.454
313.15 K, x1 = 0.8096 | 0.509
313.15 K, x1 = 0.898 | 0.558
313.15 K, x1 = 0.9671 | 0.599
313.15 K, x1 = 1 | 0.623

CCOC(=O)OCC [diethyl carbonate] + CCCCCCC
Details | viscosity [mPa·s]
293.15 K, x1 = 0.049 | 0.41
293.15 K, x1 = 0.0983 | 0.413
293.15 K, x1 = 0.1973 | 0.427
293.15 K, x1 = 0.297 | 0.449
293.15 K, x1 = 0.3989 | 0.477
293.15 K, x1 = 0.4952 | 0.508
293.15 K, x1 = 0.601 | 0.549
293.15 K, x1 = 0.7014 | 0.594
293.15 K, x1 = 0.8012 | 0.647
293.15 K, x1 = 0.8985 | 0.707
293.15 K, x1 = 0.9482 | 0.744
293.15 K, x1 = 1 | 0.795
298.15 K, x1 = 0.0509 | 0.39
298.15 K, x1 = 0.0977 | 0.394
298.15 K, x1 = 0.1973 | 0.41
298.15 K, x1 = 0.3052 | 0.43
298.15 K, x1 = 0.3949 | 0.453
298.15 K, x1 = 0.5028 | 0.486
298.15 K, x1 = 0.5924 | 0.516
298.15 K, x1 = 0.7096 | 0.565
298.15 K, x1 = 0.8054 | 0.612
298.15 K, x1 = 0.9028 | 0.673
298.15 K, x1 = 0.9495 | 0.709
298.15 K, x1 = 1 | 0.749
303.15 K, x1 = 0.0506 | 0.386
303.15 K, x1 = 0.1001 | 0.389
303.15 K, x1 = 0.1991 | 0.399
303.15 K, x1 = 0.301 | 0.416
303.15 K, x1 = 0.4058 | 0.438
303.15 K, x1 = 0.5006 | 0.464
303.15 K, x1 = 0.6133 | 0.501
303.15 K, x1 = 0.7037 | 0.539
303.15 K, x1 = 0.8029 | 0.584
303.15 K, x1 = 0.8988 | 0.637
303.15 K, x1 = 0.946 | 0.667
303.15 K, x1 = 1 | 0.699
313.15 K, x1 = 0.0493 | 0.337
313.15 K, x1 = 0.0986 | 0.344
313.15 K, x1 = 0.1975 | 0.362
313.15 K, x1 = 0.2962 | 0.381
313.15 K, x1 = 0.3992 | 0.403
313.15 K, x1 = 0.4943 | 0.426
313.15 K, x1 = 0.5992 | 0.456
313.15 K, x1 = 0.699 | 0.49
313.15 K, x1 = 0.8009 | 0.528
313.15 K, x1 = 0.8984 | 0.573
313.15 K, x1 = 0.9508 | 0.599
313.15 K, x1 = 1 | 0.623
